# Measured values: US11466028B2, “Fused 1,4-oxazepines as BET protein degraders” (THE REGENTS OF THE UNIVERSITY OF MICHIGAN, priority 2016, dated 2022)
# Read-outs that look alike come from different tables or passages of the source.
# Assays:
# MDA-MB-453 = assay: WST-8 cell growth inhibition assay, MDA-MB-453; format: cell-based; conditions: Homo sapiens, WST-8, Table 6
# Method: (§1) Cpd. Nos. 7 and 18 were tested in various triple-negative breast cancer cell lines using the WST-8 cell growth assay.
# MDA-MB-468 = assay: WST-8 cell growth inhibition assay, MDA-MB-468; format: cell-based; conditions: Homo sapiens, WST-8, Table 6
# Method: as §1
# MOLM-13 = assay: CellTiter-Glo cell growth inhibition, MOLM-13; format: cell-based; conditions: Homo sapiens
# Method: (§2) Cell growth inhibitory activity of representative Compounds of the Disclosure was determined using the CellTiter-Glo® Luminescent Cell Viability Assay. Cells were seeded in 384-well white opaque cell culture plates at a density of 2,000 cells/well with serially diluted compounds and incubated at 37° C. in an atmosphere of 95% air and 5% CO2 for 4 days. Cell viability was determined using the CellTiter-Glo® Luminescent Cell Viability Assay Kit (Promega, Madison, Wis.) according to the manufacture's instruction. Briefly, a volume of CellTiter-Glo® Reagent equal to the volume of cell culture medium was added to each well, and then the plates were incubated at room temperature for 10-20 minutes. The luminescent signal was measured using a Tecan Infinite M1000 multimode microplate reader (Tecan, Morrisville, N.C.). The half maximal inhibitory concentration (IC50) was calculated using the GraphPad Prism 5 software (GraphPad Software, La Jolla, Calif.).
# (§3) Cpd. Nos. 18 and 19 were tested in various leukemia cell lines using the CellTiter-Glo® Luminescent Cell Viability Assay as described in Example 35.
# MDA-MB-231 [1] = assay: WST-8 cell growth inhibition assay, MDA-MB-231; format: cell-based; conditions: Homo sapiens, WST-8, Table 6
# Method: as §1
# MDA-MB-157 = assay: WST-8 cell growth inhibition assay, MDA-MB-157; format: cell-based; conditions: Homo sapiens, WST-8, Table 6
# Method: as §1
# RS4;11 = assay: CellTiter-Glo cell growth inhibition, RS4;11; format: cell-based; conditions: Homo sapiens
# Method: as §2, §3
# MDA-MB-474 = assay: WST-8 cell growth inhibition assay, MDA-MB-474; format: cell-based; conditions: WST-8, Table 6
# Method: as §1
# RS4;11 xenograph tumors = assay: RS4;11 xenograft model; format: in vivo, SCID mice; conditions: SCID mice
# Method: Cpd. Nos. 7 and 11 were dissolved in 10% PCP [10% PEG400 (Sigma), 3% Cremophor (Sigma), and 87% PBS (Gibco)]. The pH of the drug solutions were checked before use and adjusted with 0.5N NaOH to be between pH 6.5 and 8.0 for IV (intravenous) administration.
# RS4;11 cells were maintained at 37° C., 95% air, 5% carbon dioxide in Improved MEM (Richter's Mod.) supplemented with 10% Fetal Bovine Serum, 100 units/ml of penicillin and 100 units/ml of streptomycin (GIBCO™, Invitrogen Corp.) and passaged twice weekly.
# Tumor cells for xenografts were harvested with Trypsin (0.05%)-EDTA (0.53 mM) (GIBCO™, Invitrogen Corp.), growth medium added and cells placed on ice. Cells were washed once with 1×PBS (GIBCO™, Invitrogen Corp.) and re-suspended in PBS. After washing in PBS, cells were re-suspended in an ice cold mixture of 1:1 PBS and Matrigel (BD Biosciences, Invitrogen Corp.) for a final Matrigel protein concentration of 5 mg/ml. Cells at 5×10^6 cells in 0.1 ml were injected subcutaneously (s.c.) into the flank region of each mouse using a 25 gauge needle. All tumors were inoculated into SCID mice (strain:236) C.B-17 SCID, Charles River.
# The size of tumors growing in the mice was measured in two dimensions using calipers. Tumor volume (mm^3)═(A×B^2)/2 where A and B are the tumor length and width (in mm), respectively. During treatment, tumor volume and body weight were measured three times a week. After the treatment was stopped, tumor volume and body weight was measured at least once a week.
# Tumors were not allowed to exceed 10% of the animals total body weight. If an animal had two or more tumors the total weight of all tumors were not allowed to exceed 10% of the animal's total body weight. At the end of the experimental period or when tumor size approached 10% of the total body weight, the animal was euthanized.
# Before treatment began, tumors were allowed to grow to 100-200 mm^3 in volume, at which point the blood vessel supplies to the tumor should have been well established. Mice with tumors within acceptable size range were randomized into treatment groups of seven mice. Cpd. Nos. 7 and 11 were given i.v. at 10 mg/kg at days 1,3, and 5 per week for two weeks. The Control group received vehicle alone. Cpd. Nos. 16, 18, 22 and 48 were given i.v. at 5 mg/kg at days 1, 3, and 5 per week for two weeks. The Control group received vehicle alone.
# (§4) Representative Compounds of the Disclosure were tested in the RS4;11 and other xenograph models using similar techniques. […] No. 22 in the MDA-MB-231 TNBC model.
# MDA-MB-231 [2] = assay: CellTiter-Glo cell growth inhibition, MDA-MB-231; format: cell-based; conditions: Homo sapiens, MDA-MB-231, 96 h, 4 days, Table 4
# Method: as §2
# MDA-MB-436 = assay: WST-8 cell growth inhibition assay, MDA-MB-436; format: cell-based; conditions: Homo sapiens, WST-8, Table 6
# Method: as §1
# HBL100 = assay: WST-8 cell growth inhibition assay, HBL100; format: cell-based; conditions: Homo sapiens, HBL-100; WST-8, Table 6
# Method: as §1
# MV4;11 xenograph = MV4;11 xenograph model; format: in vivo; conditions: FIG. 9
# Method: as §4
# MonoMac6 = assay: CellTiter-Glo cell viability, MonoMac6 leukemia cell line; format: cell-based; conditions: Homo sapiens, MONO-MAC-6, Table 5
# Method: as §2, §3
# MOLM16 = assay: CellTiter-Glo cell viability, MOLM16 leukemia cell line; format: cell-based; conditions: Table 5
# Method: as §2, §3
# BRD2 [3] = biological target: T1, BRD2 (Homo sapiens, UniProt P25440); assay: Western blot, degradation of BRD2 in MOLM-13 cells; format: cell-based; conditions: 3 h, as compared to Compound A, FIG. 2
# T1 construct: endogenous in cells; host or cells: RS4;11 and MOLM-13 leukemia cells
# Method: (§5) Cells were treated with compounds at the indicated concentrations for 2.5 h and 3 h, respectively, for RS4;11 (see FIG. 1) and MOLM-13 (see FIG. 2) cells. Compound A is ((S)-3-benzyl-6,9-dimethyl-2-((1-methyl-1H-pyrazol-4-yl)ethynyl)-4H,6H-thieno[2,3-e][1,2,4]triazolo[3,4-c][1,4]oxazepine). See Cpd. No. 85 of U.S. Appl. No. 62/295,271.
# (§6) Collected cells were lysed in lysis buffer [1% CHAPS, 150 mM NaCl, 20 mM Tris-HCl, 1 mM. EDTA, 1 mM EGTA, and COMPLETE proteinase inhibitor (Roche)] for 30 minutes on ice. Protein concentrations were determined using the Bio-Rad Protein Assay Dye reagent. Whole tumor lysates (20 μg) were separated on a 4-20% Novex gels (Invitrogen). The separated proteins were transferred to a PVDF membrane (BIO-RAD) and the PVDF membrane was then blotted with 5% Blotting-Grade Blocker (BIO-RAD) for 1 hour at room temperature. The primary antibodies used were BRD4 rabbit polyclonal antibody [Bethyl Laboratories, Inc, cat #A301] and BRD2 antibody.
# (§7) The BIO-RAD Clarity Western ECL Substrates (BIO-RAD) and HyBlot CL film (Denville) were used for signal development and detection using a SRX-101A tabletop processor (Konica Minolta).
# HL60 = assay: CellTiter-Glo cell viability, HL60 leukemia cell line; format: cell-based; conditions: Homo sapiens, HL-60, Table 5
# Method: as §2, §3
# BRD4 [4] = biological target: T2, BRD4 (Homo sapiens, UniProt O60885); assay: Western blot, degradation of BRD4 in MOLM-13 cells; format: cell-based; conditions: 3 h, as compared to Compound A, FIG. 2
# T2 construct: Collected cells were lysed in lysis buffer; endogenous in cells; host or cells: RS4;11 and MOLM-13 leukemia cells
# Method: as §5, §6, §7
# KG1 = assay: CellTiter-Glo cell viability, KG1 leukemia cell line; format: cell-based; conditions: Homo sapiens, KG-1, Table 5
# Method: as §2, §3
# AML5 = assay: CellTiter-Glo cell viability, AML5 leukemia cell line; format: cell-based; conditions: Table 5
# Method: as §2, §3
# BRD2 [5] = biological target: T1, BRD2; assay: Western blot, degradation of BRD2 in RS4;11 cells; format: cell-based; conditions: 2.5 h, as compared to Compound A, FIG. 1
# Method: as §5, §6, §7
# MV4; 11 = assay: CellTiter-Glo cell viability, MV4;11 leukemia cell line; format: cell-based; conditions: Homo sapiens, Table 5
# Method: as §2, §3
# BRD4 [6] = biological target: T2, BRD4; assay: Western blot, degradation of BRD4 in RS4;11 cells; format: cell-based; conditions: 2.5 h, as compared to Compound A, FIG. 1
# Method: as §5, §6, §7
# AML3 = assay: CellTiter-Glo cell viability, AML3 leukemia cell line; format: cell-based; conditions: Table 5
# Method: as §2, §3
# [7] = MOLM-13, 96 h, 4 days, Table 4, read-out: MOLM-13 IC50
# [8] = RS4-11, 96 h, 4 days, Table 4, read-out: RS-4, 11 IC50
# [9] = i.v. 5 mg/kg at days 1, 3, 5 per week for two weeks, FIG. 4
# T1 sequence (P25440 whole entry): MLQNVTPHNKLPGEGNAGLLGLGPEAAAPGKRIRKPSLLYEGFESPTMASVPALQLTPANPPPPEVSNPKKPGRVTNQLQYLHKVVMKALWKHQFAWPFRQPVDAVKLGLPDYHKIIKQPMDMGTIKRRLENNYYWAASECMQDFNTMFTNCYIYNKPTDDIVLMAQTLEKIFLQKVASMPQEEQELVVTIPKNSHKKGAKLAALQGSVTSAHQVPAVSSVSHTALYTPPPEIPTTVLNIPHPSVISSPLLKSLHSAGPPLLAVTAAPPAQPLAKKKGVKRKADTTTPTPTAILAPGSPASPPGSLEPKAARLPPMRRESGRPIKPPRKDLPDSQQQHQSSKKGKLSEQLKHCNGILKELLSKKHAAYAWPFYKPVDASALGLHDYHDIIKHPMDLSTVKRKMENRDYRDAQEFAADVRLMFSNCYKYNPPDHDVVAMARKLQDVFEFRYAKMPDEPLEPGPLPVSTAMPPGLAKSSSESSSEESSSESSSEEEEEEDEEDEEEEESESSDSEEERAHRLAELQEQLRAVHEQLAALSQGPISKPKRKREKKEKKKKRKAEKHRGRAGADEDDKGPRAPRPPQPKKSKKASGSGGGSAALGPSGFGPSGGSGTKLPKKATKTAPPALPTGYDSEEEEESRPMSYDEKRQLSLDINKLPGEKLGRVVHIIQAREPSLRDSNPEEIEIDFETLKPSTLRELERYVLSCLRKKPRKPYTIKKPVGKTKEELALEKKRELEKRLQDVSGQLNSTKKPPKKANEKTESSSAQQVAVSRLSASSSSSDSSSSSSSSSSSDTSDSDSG
compound,measurement,setting,value
"Cc1nnc2n1-c1sc(C#Cc3cnn(CCCCNc4cccc5c4C(=O)N(C4CCC(=O)NC4=O)C5=O)c3)c(Cc3ccccc3)c1CO[C@H]2C (stereo partly drawn) [Cpd. No. 7, 4-((4-(4-(((S)-3-benzyl-6,9-dimethyl-4H,6H-thieno[2,3-e][1,2,4]triazolo[3,4-c][1,4]oxazepin-2-yl)ethynyl)-1H-pyrazol-1-yl)butyl)amino)-2-(2,6-dioxopiperidin-3-yl)isoindoline-1,3-dione]",IC50,MDA-MB-453,1.02 ± 0.03 nM
same,IC50,MDA-MB-468,2.46 ± 0.07 nM
same,IC50,MOLM-13; [7],0.7 nM
same,IC50,MDA-MB-231 [1],1.2 ± 0.13 nM
same,IC50,MDA-MB-157,0.29 ± 0.02 nM
same,IC50,RS4;11; [8],0.03 nM
same,IC50,MDA-MB-474,1.09 ± 0.06 nM
same,tumor regression in RS4;11 xenograph tumors,"RS4;11 xenograph tumors; i.v. 10 mg/kg at days 1, 3, 5 per week for two weeks, FIG. 3",induce tumor regression
same,IC50,MDA-MB-231 [2],0.8 nM
same,IC50,MDA-MB-436,2.24 ± 0.3 nM
same,IC50,HBL100,1.7 ± 0.15 nM
"Cc1nnc2n1-c1sc(C#Cc3cnn(CCCCNc4cccc5c4CN(C4CCC(=O)NC4=O)C5=O)c3)c(Cc3ccccc3)c1COC2 (stereo not shown) [Cpd. No. 17, 3-(4-((4-(4-((3-benzyl-9-methyl-4H,6H-thieno[2,3-e][1,2,4]triazolo[3,4-c][1,4]oxazepin-2-yl)ethynyl)-1H-pyrazol-1-yl)butyl)amino)-1-oxoisoindolin-2-yl) piperidine-2,6-dione]",IC50,MOLM-13; [7],0.5 nM
same,IC50,RS4;11; [8],0.06 nM
same,tumor regression in the MV4;11 xenograph model,MV4;11 xenograph,induce tumor regression
same,IC50,MDA-MB-231 [2],0.21 nM
"Cc1nnc2n1-c1sc(C#Cc3cnn(CCCCCc4cccc5c4CN(C4CCC(=O)NC4=O)C5=O)c3)c(Cc3ccccc3)c1CO[C@H]2C (stereo partly drawn) [Cpd. No. 19, 3-(4-(5-(4-(((S)-3-benzyl-6,9-dimethyl-4H,6H-thieno[2,3-e][1,2,4]triazolo[3,4-c][1,4]oxazepin-2-yl)ethynyl)-1H-pyrazol-1-yl)pentyl)-1-oxoisoindolin-2-yl) piperidine-2,6-dione]",IC50,MOLM-13; [7],2.7 nM
same,IC50,"MOLM-13; MOLM-13, Table 5, read-out: IC50 (nM) MOLM13",7.6 nM
same,IC50,RS4;11; [8],0.06 nM
same,IC50,"RS4;11; RS4-11, Table 5, read-out: IC50 (nM) RS4, 11",0.8 ± 0.1 nM
same,IC50,MonoMac6,1.8 ± 0.3 nM
same,IC50,MOLM16,0.15 ± 0.06 nM
same,degradation of BRD2 protein (Western blot),BRD2 [3],induce degradation
same,IC50,HL60,0.97 ± 0.08 nM
same,degradation of BRD4 protein (Western blot),BRD4 [4],induce degradation
same,IC50,KG1,3.99 ± 0.18 nM
same,IC50,MDA-MB-231 [2],12 nM
same,IC50,AML5,0.84 ± 0.14 nM
same,degradation of BRD2 protein (Western blot),BRD2 [5],induce degradation
same,IC50,MV4; 11,0.46 ± 0.1 nM
same,degradation of BRD4 protein (Western blot),BRD4 [6],induce degradation
same,IC50,AML3,2.44 ± 0.22 nM
"Cc1nnc2n1-c1sc(C#Cc3cnn(CCCCCc4cccc5c4CN(C4CCC(=O)NC4=O)C5=O)c3)c(Cc3ccccc3)c1COC2 (stereo not shown) [Cpd. No. 48, 3-(4-(5-(4-((3-benzyl-9-methyl-4H,6H-thieno[2,3-e][1,2,4]triazolo[3,4-c][1,4]oxazepin-2-yl)ethynyl)-1H-pyrazol-1-yl)pentyl)-1-oxoisoindolin-2-yl) piperidine-2,6-dione]",IC50,MOLM-13; [7],1.7 nM
same,IC50,RS4;11; [8],0.22 nM
same,tumor regression in RS4;11 xenograph tumors,RS4;11 xenograph tumors; [9],induce tumor regression
same,IC50,MDA-MB-231 [2],0.33 nM
"Cc1nnc2n1-c1sc(C#Cc3cnn(CCCCNc4cccc5c4C(=O)N(C4CCC(=O)NC4=O)C5=O)c3)c(Cc3ccccc3)c1COC2 (stereo not shown) [Cpd. No. 16, 4-((4-(4-((3-benzyl-9-methyl-4H,6H-thieno[2,3-e][1,2,4]triazolo[3,4-c][1,4]oxazepin-2-yl)ethynyl)-1H-pyrazol-1-yl)butyl)amino)-2-(2,6-dioxopiperidin-3-yl) isoindoline-1,3-dione]",IC50,MOLM-13; [7],0.9 nM
same,IC50,RS4;11; [8],0.1 nM
same,tumor regression in RS4;11 xenograph tumors,RS4;11 xenograph tumors; [9],induce tumor regression
same,IC50,MDA-MB-231 [2],0.29 nM
"Cc1nnc2n1-c1sc(C#Cc3cnn(CCCCOc4cccc5c4CN(C4CCC(=O)NC4=O)C5=O)c3)c(Cc3ccccc3)c1COC2 (stereo not shown) [compound 65, 3-(4-(4-(4-((3-benzyl-9-methyl-4H,6H-thieno[2,3-e][1,2,4]triazolo[3,4-c][1,4]oxazepin-2-yl)ethynyl)-1H-pyrazol-1-yl)butoxy)-1-oxoisoindolin-2-yl)piperidine-2,6-dione]",tumor regression in the MV4;11 xenograph model,MV4;11 xenograph,induce tumor regression
